Earlier results on 1 compound are cited in US20140004177A1, “COX-2 INHIBITORS AND RELATED COMPOUNDS, AND SYSTEMS AND METHODS FOR DELIVERY THEREOF” (Strategic Science & Technologies, LLC, priority 2010, published 2014).

Usually pKa stands for the negative logarithm of the acid dissociation constant.

Structures are written as SMILES.

Take `CS(=O)(=O)c1ccc(C2=C(c3ccccc3)C(=O)OC2)cc1` [rofecoxib]: the pKa is reported as 19.7.
